Source: patent US20170314205A1, “Microorganism Control System and Method of Using the Same” (Ecolab USA Inc., priority 2014, published 2017)

Assay: Effect of acid addition on pH and available chlorine of urea-stabilized halogen-containing bactericide
Format: physicochemical
Details: for Solution pH / Available chlorine: final 30 ml; for Available chlorine: blank 2550
Procedure: Then, 5 beakers were provided and separately added with 1 ml of the prepared urea-stabilized halogen-containing bactericide. After that, 29 ml of water was added to the first beaker for dilution (blank control), while the other 4 beakers were separately added with 20% sulfuric acid (0.5 ml or 1.0 ml) or 20% citric acid (1.0 ml or 2.0 ml), and added with water to reach a final volume of 30 ml. Finally, pH values and available chlorine contents (ppm) of solutions in the 5 beakers were measured.
Further, 10% aminosulfonic acid (which was used to replace sulfuric acid or citric acid, which dosage was 1.1 ml or 1.24 ml) was used to repeat the above experiments. […] In addition, after aminosulfonic acid was added, pH values and available chlorine contents (ppm) in solutions were measured, and after standing for 40 min, 120 min, and 240 min, available chlorine contents (ppm) of solutions were measured again. […]

[1] = acid volume 1.0 ml to 1 ml urea-stabilized bactericide (12.5% hypochlorite)
[2] = acid volume 2.0 ml to 1 ml urea-stabilized bactericide (12.5% hypochlorite)
[3] = acid volume 0.5 ml to 1 ml urea-stabilized bactericide (12.5% hypochlorite)

Row | SMILES | Solution pH [1] | Available chlorine [1] | Solution pH [2] | Available chlorine [2] | Solution pH [3] | Available chlorine [3] | Solution pH after mixing (10% acid 1.1 ml to 1 ml urea-stabilized bactericide (8.5% hypochlorite)) | Available chlorine after mixing (10% acid 1.1 ml, 0 min) | Available chlorine after mixing (10% acid 1.1 ml, 40 min) | Available chlorine after mixing (10% acid 1.1 ml, 120 min) | Available chlorine after mixing (10% acid 1.1 ml, 240 min) | Solution pH after mixing (10% acid 1.24 ml to 1 ml urea-stabilized bactericide (8.5% hypochlorite)) | Available chlorine after mixing (10% acid 1.24 ml, 0 min) | Available chlorine after mixing (10% acid 1.24 ml, 40 min) | Available chlorine after mixing (10% acid 1.24 ml, 120 min) | Available chlorine after mixing (10% acid 1.24 ml, 240 min) | Time for which available chlorine content of solution is maintained (urea-stabilized bactericide with pH regulated by aminosulfonic acid)
1 | O=C(O)CC(O)(CC(=O)O)C(=O)O [20% citric acid, citric acid, reference compound] | 7.75 | 1250 ppm | 3.65 | 725 ppm |  |  |  |  |  |  |  |  |  |  |  |  | 
2 | O=S(=O)(O)O [20% sulfuric acid, sulfuric acid, reference compound] | 2.15 | 455 ppm |  |  | 7.35 | 750 ppm |  |  |  |  |  |  |  |  |  |  | 
3 | NS(=O)(=O)O [Aminosulfonic acid, aminosulfonic acid] |  |  |  |  |  |  | 8.46 | 1275 ppm | 1275 ppm | 1325 ppm | 1400 ppm | 5.96 | 1300 ppm | 1325 ppm | 1475 ppm | 1250 ppm | at least 240 min
